Source: patent US12150934B2 (Bantam Pharmaceutical, LLC, priority 2016, dated 2024)

Tested on: BJAB cells
Assay: BJAB cell proliferation (Cell Titer Glo)
Type: cell-based
Settings: Homo sapiens, approximately 72 hours
Experimental: Cells were seeded in white Corning Costar 96-well assay plates at 2500 cells/well in 50 μL of medium. Serial dilutions of test compounds were made in cell culture medium/FBS+0.2% DMSO, and transferred to assay plates in a volume of 50 μL (DMSO at 0.1% final). Plates were maintained at 37° C. for approximately 72 hours. The effect of compounds on cell proliferation was evaluated using the Cell Titer Glo reagent (Promega), according to the manufacturer's instructions. Briefly, 100 μL of reagent was added per well, and after a 10 minute incubation luminescence values were determined on a plate reader (Tecan F200PRO). The percent of luminescence signal relative to untreated controls was calculated for each compound concentration, and EC50 values were determined from dose response data by non-linear regression analysis using Prism (GraphPad). The mTor inhibitor Torin1 (Liu, et al. (2010) J. Med. Chem. 53, 7146) was used as a control. The data are summarized in the compound table provided above.

SMILES | EC50
Cc1nn(C)cc1-c1c(C)nn(-c2nc(-c3ccc(Cl)c(Cl)c3)c(SC(C)C)s2)c1C(=O)O [Compound 22, 2-(4-(3,4-dichlorophenyl)-5-(isopropylthio)thiazol-2-yl)-2′,5,5′-trimethyl-4,4′-bi(2H-pyrazole)-3-carboxylic acid] | 10 to 25 µM
CCC(C)Sc1sc(-n2nc(C)c(-c3cc(C)nc(C)c3)c2C(=O)O)nc1-c1ccc(Cl)c(Cl)c1 (centres unmarked) [Compound 33b] | < 1 µM
Cc1nn(-c2nc(-c3cc(Cl)cc(Cl)c3)c(SC(C)C)s2)c(C(=O)O)c1-c1cc(Cl)cc(Cl)c1 [Compound 150, 4-(3,5-dichlorophenyl)-1-(4-(3,5-dichlorophenyl)-5-(isopropylthio)thiazol-2-yl)-3-methyl-1H-pyrazole-5-carboxylic acid] | 1 to 5 µM
Cc1nn(-c2nc(-c3cc4ccccc4o3)c(SC(C)C)s2)c(C(=O)O)c1-c1cccc(F)c1 [Compound 201b] | 10 to 25 µM
Cc1nn(-c2nc(-c3cncc(C#N)c3)c(SC(C)C)s2)c(C(=O)O)c1-c1cccc(F)c1 [Compound 210, 1-(4-(5-cyanopyridin-3-yl)-5-(isopropylthio)thiazol-2-yl)-4-(3-fluorophenyl)-3-methyl-1H-pyrazole-5-carboxylic acid] | > 40 µM
CSc1sc(-n2nc(C)c(Cc3ccccc3[N+](=O)[O-])c2C(=O)O)nc1-c1ccc(Cl)c(Cl)c1 [Compound 45, 1-(4-(3,4-dichlorophenyl)-5-(methylthio)thiazol-2-yl)-3-methyl-4-(2-nitrobenzyl)-1H-pyrazole-5-carboxylic acid] | 25 to 50 µM
Cc1nn(-c2nc(-c3cccc(F)c3)c(SC(C)C)s2)c(C(=O)O)c1-c1cccc(F)c1 [Compound 201a] | 25 to 50 µM
Cc1nn(-c2nc(-c3ccc(Cl)c(Cl)c3)c(F)s2)c(C(=O)O)c1-c1cccc(F)c1 [Compound 227, 1-(4-(3,4-dichlorophenyl)-5-fluorothiazol-2-yl)-4-(3-fluorophenyl)-3-methyl-1H-pyrazole-5-carboxylic acid] | 10 to 25 µM
Cc1nn(-c2nc(-c3ccc(C#N)cc3)c(SC(C)C)s2)c(C(=O)O)c1-c1cccc(F)c1 [Compound 213, 1-(4-(4-cyanophenyl)-5-(isopropylthio)thiazol-2-yl)-4-(3-fluorophenyl)-3-methyl-1H-pyrazole-5-carboxylic acid] | 5 to 10 µM
CCNC(=O)c1cc(-c2nc(-n3nc(C)c(-c4cccc(F)c4)c3C(=O)O)sc2SC(C)C)ccc1Cl [Compound 243, 1-(4-(4-chloro-3-(ethylcarbamoyl)phenyl)-5-(isopropylthio)thiazol-2-yl)-4-(3-fluorophenyl)-3-methyl-1H-pyrazole-5-carboxylic acid] | > 40 µM
COCCOc1cc(Cl)cc(-c2c(C)nn(-c3nc(-c4ccc(Cl)c(Cl)c4)c(SC(C)C)s3)c2C(=O)O)c1 [Compound 175, 4-(3-chloro-5-(2-methoxyethoxy)phenyl)-1-(4-(3,4-dichlorophenyl)-5-(isopropylthio)thiazol-2-yl)-3-methyl-1H-pyrazole-5-carboxylic acid] | 1 to 5 µM

Same assay, conditions: approximately 72 hours

SMILES | EC50 (BJAB cell proliferation)
Cc1nn(-c2nc(-c3ccc(Cl)c(Cl)c3)c(SC(C)C)s2)c(C(=O)O)c1-c1cccc(F)c1 [Compound 151, 1-(4-(3,4-dichlorophenyl)-5-(isopropylthio)thiazol-2-yl)-4-(3-fluorophenyl)-3-methyl-1H-pyrazole-5-carboxylic acid] | A,B

Tested on: HCT116 cells
Assay: Effect on glutathione levels with menadione and N-acetyl cysteine
Type: cell-based
Settings: FIG. 3
Experimental: Effect on Glutathione levels: BJAB and HCT116 cells were maintained in RPMI medium (Wisent) or McCoy's medium (Wisent), respectively. 5000 cells/well were transferred to clear-bottom 96-well assay plates (Thermo Fisher) in a volume of 50 μL. Plates were incubated overnight at 37° C. in 5% CO2, in an unsealed plastic bag with damp paper. Menadione (Sigma) was dissolved in DMSO and diluted in 10% heat inactivated FBS plus culture medium to 20 μM and 5 μM (0.2% DMSO for each). Culture medium was gently aspirated from cells and replaced by 50 μl diluted menadione or 0.2% DMSO for controls. Test compound was diluted to 80 μM (0.2% DMSO) in 10% heat inactivated FBS plus culture medium then diluted further to 5 μM, 1 μM, 0.5 μM and 0.05 μM (in 0.2% DMSO). 50 μL test compound solution was added to each well, with or without menadione. One μL of an N-acetyl cysteine (Sigma) solution at 100 mM in water was added where indicated. Assay plates were incubated for the times indicated at 37° C. 5% CO2 in opened plastic bag with damp paper. Total glutathione levels were determined according to the procedure described above.

SMILES | Glutathione levels in HCT116 cells after treatment
CC1=CC(=O)c2ccccc2C1=O [menadione] | reduction

Same assay, conditions: presence or absence of N-acetyl cysteine, FIG. 3

SMILES | Effect of N-acetyl cysteine on the reduction of glutathione
CC1=CC(=O)c2ccccc2C1=O [menadione] | prevents the reduction
